Data reported in paper PMC10728902, “β-L-Arabinofurano-cyclitol Aziridines Are Covalent Broad-Spectrum Inhibitors and Activity-Based Probes for Retaining β-L-Arabinofuranosidases” (ACS Chemical Biology, 2023).
Where two headings read alike, the source gives them in different places.

Key:
rHypBA1 = biological target: T1, rHypBA1 (Bifidobacterium longum, UniProt E8MGH8); test: inactivation kinetics, residual hydrolysis of 4-nitrophenyl beta-L-arabinofuranoside, A405; assay type: biochemical
T1 construct: gene hypBA1; recombinant; 74 kDa; produced by published procedures
T1 sequence (E8MGH8 1-658): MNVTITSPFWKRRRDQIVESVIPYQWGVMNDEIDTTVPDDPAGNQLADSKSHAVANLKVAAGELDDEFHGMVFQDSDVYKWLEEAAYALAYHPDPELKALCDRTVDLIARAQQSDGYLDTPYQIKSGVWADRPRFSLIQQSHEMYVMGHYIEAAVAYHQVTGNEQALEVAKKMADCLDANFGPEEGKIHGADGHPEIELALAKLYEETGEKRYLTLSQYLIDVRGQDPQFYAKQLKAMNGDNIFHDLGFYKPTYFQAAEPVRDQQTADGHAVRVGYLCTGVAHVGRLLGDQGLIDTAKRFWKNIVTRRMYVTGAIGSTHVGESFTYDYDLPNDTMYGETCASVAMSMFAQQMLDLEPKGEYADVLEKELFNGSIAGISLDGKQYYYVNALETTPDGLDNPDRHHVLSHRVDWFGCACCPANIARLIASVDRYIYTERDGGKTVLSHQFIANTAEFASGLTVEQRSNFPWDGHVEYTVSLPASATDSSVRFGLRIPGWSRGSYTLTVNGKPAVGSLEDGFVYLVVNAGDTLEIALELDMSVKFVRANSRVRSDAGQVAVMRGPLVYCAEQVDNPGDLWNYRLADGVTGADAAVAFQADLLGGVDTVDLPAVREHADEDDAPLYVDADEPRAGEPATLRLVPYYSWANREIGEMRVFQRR
Excerpt: inactivation kinetics, residual hydrolysis of 4-nitrophenyl beta-L-arabinofuranoside, A405 on rHypBA1

rBtGH146 = biological target: T2, rBtGH146 (Bacteroides thetaiotaomicron, UniProt Q8AAW3); test: as above; assay type: biochemical
T2 construct: gene BT_0349; recombinant, expressed in E. coli; 92 kDa on gel; produced by published procedures
T2 sequence (Q8AAW3 1-802): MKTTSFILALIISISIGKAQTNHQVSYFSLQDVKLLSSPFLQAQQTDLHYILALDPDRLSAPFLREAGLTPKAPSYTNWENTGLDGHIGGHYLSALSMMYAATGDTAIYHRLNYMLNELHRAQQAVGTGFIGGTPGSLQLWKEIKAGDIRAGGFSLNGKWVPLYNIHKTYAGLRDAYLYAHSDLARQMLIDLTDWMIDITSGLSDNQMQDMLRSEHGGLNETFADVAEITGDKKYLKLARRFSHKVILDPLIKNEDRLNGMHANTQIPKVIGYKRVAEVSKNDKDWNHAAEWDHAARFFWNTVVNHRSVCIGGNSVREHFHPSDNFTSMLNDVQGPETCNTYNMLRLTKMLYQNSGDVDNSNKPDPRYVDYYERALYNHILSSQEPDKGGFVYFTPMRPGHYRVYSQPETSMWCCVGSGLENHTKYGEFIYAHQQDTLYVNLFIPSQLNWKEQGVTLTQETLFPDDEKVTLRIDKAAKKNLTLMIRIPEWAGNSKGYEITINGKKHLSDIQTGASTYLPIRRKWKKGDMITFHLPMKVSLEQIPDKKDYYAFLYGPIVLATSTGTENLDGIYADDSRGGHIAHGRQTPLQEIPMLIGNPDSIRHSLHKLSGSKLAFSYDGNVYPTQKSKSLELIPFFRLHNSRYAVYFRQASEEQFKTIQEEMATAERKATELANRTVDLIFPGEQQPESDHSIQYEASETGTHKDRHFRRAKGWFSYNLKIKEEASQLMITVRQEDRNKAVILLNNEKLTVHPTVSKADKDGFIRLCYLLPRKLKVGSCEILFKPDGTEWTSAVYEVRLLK
Excerpt: inactivation kinetics, residual hydrolysis of 4-nitrophenyl beta-L-arabinofuranoside, A405 on rBtGH146

[1] = read-out: rBtGH146 / KI, covalent, time-dependent, pH 7.5 HEPES, 200 mM NaCl, 1 mM DTT, 37 °C

SMILES | kinact/KI (rHypBA1) [M⁻¹ s⁻¹] | KI (inactivation) (rBtGH146; [1]) [µM] | KI (inactivation) (rHypBA1; read-out: rHypBA1 / KI, covalent, time-dependent, pH 4.5 acetate, 1 mM DTT, 37 °C) [µM] | KI (inactivation) (rBtGH146; covalent, time-dependent, pH 7.5 HEPES, 200 mM NaCl, 1 mM DTT, 37 °C, read-out: rBtGH146 / KI) [µM]
CN1C(=CC=CC=CC2=[N+](CCCCCC(=O)NCCCCCCCCOC[C@H]3[C@H](O)[C@@H](O)[C@H]4O[C@@H]34)c3ccccc3C2(C)C)C(C)(C)c2ccccc21 [compound 4, Cy5-tagged epoxide ABP 4] | < 0.1 | 140 ± 10 |  | 
NCCCCCCCCN1[C@@H]2[C@H](O)[C@@H](O)[C@H](CO)[C@@H]21 (stereo partly drawn) [compound 7, aziridine 7] |  | 190 ± 20 | 280 ± 90 | 
OC[C@H]1[C@H](O)[C@@H](O)[C@H]2N[C@@H]12 [compound 2, β-L-arabinofuranosyl cyclophellitol aziridine] | > 4200 |  |  | 350 ± 40
